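Dose response: 5 concentrations. Exposure: 48 h. Format: 96-well plates. Endpoint: linear interpolation; highest concentration if not reached. GI50 marks 50% less growth. TGI marks complete inhibition of growth.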
Experiments:
Assay in all cases: inhibition of tumour cell growth, NCI panel, 48 h
786-0 renal = system: 786-0 renal
A498 renal = system: A498 renal
A549 NSCLC = system: A549 NSCLC
ACHN renal = system: ACHN renal
CAKI-1 renal = system: CAKI-1 renal
CCRF-CEM leukemia = system: CCRF-CEM leukemia
COLO 205 colon = system: COLO 205 colon
DU-145 prostate = system: DU-145 prostate
EKVX NSCLC = system: EKVX NSCLC
HCC-2998 colon = system: HCC-2998 colon
HCT-116 colon = system: HCT-116 colon
HCT-15 colon = system: HCT-15 colon
HOP-62 NSCLC = system: HOP-62 NSCLC
HOP-92 NSCLC = system: HOP-92 NSCLC
HS 578T breast = system: HS 578T breast
HT29 colon = system: HT29 colon
IGROV1 ovarian = system: IGROV1 ovarian
K-562 leukemia = system: K-562 leukemia
KM12 colon = system: KM12 colon
LOX IMVI melanoma = system: LOX IMVI melanoma
M14 melanoma = system: M14 melanoma
MALME-3M melanoma = system: MALME-3M melanoma
MCF7 breast = system: MCF7 breast
MDA-MB-231 breast = system: MDA-MB-231 breast
MDA-MB-435 = system: MDA-MB-435
MOLT-4 leukemia = system: MOLT-4 leukemia
NCI-H226 lung = system: NCI-H226 lung
NCI-H23 lung = system: NCI-H23 lung
NCI-H460 lung = system: NCI-H460 lung
NCI-H522 lung = system: NCI-H522 lung
NCI/ADR-RES ovarian = system: NCI/ADR-RES ovarian
OVCAR-3 ovarian = system: OVCAR-3 ovarian
OVCAR-4 ovarian = system: OVCAR-4 ovarian
OVCAR-5 ovarian = system: OVCAR-5 ovarian
OVCAR-8 ovarian = system: OVCAR-8 ovarian
PC-3 prostate = system: PC-3 prostate
RPMI-8226 leukemia = system: RPMI-8226 leukemia
RXF 393 renal = system: RXF 393 renal
SF-268 CNS = system: SF-268 CNS
SF-295 CNS = system: SF-295 CNS
SF-539 CNS = system: SF-539 CNS
SK-MEL-2 melanoma = system: SK-MEL-2 melanoma
SK-MEL-28 melanoma = system: SK-MEL-28 melanoma
SK-MEL-5 melanoma = system: SK-MEL-5 melanoma
SK-OV-3 ovarian = system: SK-OV-3 ovarian
SN12C renal = system: SN12C renal
SNB-19 CNS = system: SNB-19 CNS
SNB-75 CNS = system: SNB-75 CNS
SR leukemia = system: SR leukemia
SW-620 colon = system: SW-620 colon
T-47D breast = system: T-47D breast
TK-10 renal = system: TK-10 renal
U251 CNS = system: U251 CNS
UACC-257 melanoma = system: UACC-257 melanoma
UACC-62 melanoma = system: UACC-62 melanoma
UO-31 renal = system: UO-31 renal
BT-549 breast = system: BT-549 breast
HL-60(TB) leukemia = system: HL-60(TB) leukemia

With CC(=O)NC(CCCOC(C)=O)C(=O)NC(CCCOC(C)=O)C(=O)NC(CCCOC(C)=O)C(=O)NC(Cc1ccc([N+](=O)[O-])cc1)C(=O)NCC(=O)OCc1ccccc1 (stereo unspecified) the TGI (786-0 renal) was > 100 µM, the TGI (A498 renal) was > 100 µM and the TGI (A549 NSCLC) was > 100 µM. The TGI (ACHN renal) was > 100 µM, the TGI (CAKI-1 renal) was > 100 µM and the TGI (CCRF-CEM leukemia) was > 100 µM. The TGI (COLO 205 colon) was > 100 µM, the TGI (DU-145 prostate) was > 100 µM and the TGI (EKVX NSCLC) was > 100 µM. The TGI (HCC-2998 colon) was > 100 µM, the TGI (HCT-116 colon) was > 100 µM and the TGI (HCT-15 colon) was > 100 µM. The TGI (HOP-62 NSCLC) was > 100 µM, the TGI (HOP-92 NSCLC) was > 100 µM and the TGI (HS 578T breast) was > 100 µM. The TGI (HT29 colon) was > 100 µM, the TGI (IGROV1 ovarian) was > 100 µM and the TGI (K-562 leukemia) was > 100 µM. The TGI (KM12 colon) was > 100 µM, the TGI (LOX IMVI melanoma) was > 100 µM and the TGI (M14 melanoma) was > 100 µM. For the same molecule, the TGI (MALME-3M melanoma) was > 100 µM, the TGI (MCF7 breast) was > 100 µM and the TGI (MDA-MB-231 breast) was > 100 µM. The TGI (MDA-MB-435) was > 100 µM, the TGI (MOLT-4 leukemia) was > 100 µM and the TGI (NCI-H226 lung) was > 100 µM. The TGI (NCI-H23 lung) was > 100 µM, the TGI (NCI-H460 lung) was > 100 µM and the TGI (NCI-H522 lung) was > 100 µM. For the same molecule, the TGI (NCI/ADR-RES ovarian) was > 100 µM, the TGI (OVCAR-3 ovarian) was > 100 µM and the TGI (OVCAR-4 ovarian) was > 100 µM. For the same molecule, the TGI (OVCAR-5 ovarian) was > 100 µM, the TGI (OVCAR-8 ovarian) was > 100 µM and the TGI (PC-3 prostate) was > 100 µM. The TGI (RPMI-8226 leukemia) was > 100 µM, the TGI (RXF 393 renal) was > 100 µM and the TGI (SF-268 CNS) was > 100 µM. The TGI (SF-295 CNS) was > 100 µM, the TGI (SF-539 CNS) was > 100 µM and the TGI (SK-MEL-2 melanoma) was > 100 µM. For the same molecule, the TGI (SK-MEL-28 melanoma) was > 100 µM, the TGI (SK-MEL-5 melanoma) was > 100 µM and the TGI (SK-OV-3 ovarian) was > 100 µM. For the same molecule, the TGI (SN12C renal) was > 100 µM, the TGI (SNB-19 CNS) was > 100 µM and the TGI (SNB-75 CNS) was > 100 µM. For the same molecule, the TGI (SR leukemia) was > 100 µM, the TGI (SW-620 colon) was > 100 µM and the TGI (T-47D breast) was > 100 µM. The TGI (TK-10 renal) was > 100 µM, the TGI (U251 CNS) was > 100 µM and the TGI (UACC-257 melanoma) was > 100 µM. For the same molecule, the TGI (UACC-62 melanoma) was > 100 µM and the TGI (UO-31 renal) was > 100 µM.
In the case of CNC(=O)c1c(NC(=O)c2ccc(C(C)C)cc2)sc2c1CCC(=O)C2, the GI50 (786-0 renal) was 0.636 µM, the TGI (786-0 renal) was 3.91 µM and the GI50 (A498 renal) was 0.715 µM. For the same molecule, the TGI (A498 renal) was 3.78 µM, the GI50 (A549 NSCLC) was 0.401 µM and the TGI (A549 NSCLC) was 5.45 µM. For the same molecule, the GI50 (ACHN renal) was 0.279 µM, the TGI (ACHN renal) was 1.14 µM and the GI50 (BT-549 breast) was 0.505 µM. The TGI (BT-549 breast) was 2.71 µM, the GI50 (CAKI-1 renal) was 0.31 µM and the TGI (CAKI-1 renal) was 1.5 µM. For the same molecule, the GI50 (CCRF-CEM leukemia) was 0.146 µM, the GI50 (COLO 205 colon) was 0.288 µM and the TGI (COLO 205 colon) was 0.914 µM. It also gave a GI50 (DU-145 prostate) of 3.25 µM, a TGI (DU-145 prostate) of 12.2 µM and a GI50 (EKVX NSCLC) of 0.719 µM. The TGI (EKVX NSCLC) was 2.74 µM, the GI50 (HCC-2998 colon) was 0.906 µM and the TGI (HCC-2998 colon) was 2.94 µM. It also gave a GI50 (HCT-116 colon) of 0.0892 µM, a TGI (HCT-116 colon) of 1.34 µM and a GI50 (HCT-15 colon) of 0.216 µM. It also gave a TGI (HCT-15 colon) of 1.47 µM, a GI50 (HL-60(TB) leukemia) of 0.303 µM and a TGI (HL-60(TB) leukemia) of 2.15 µM. It also gave a GI50 (HOP-62 NSCLC) of 3.41 µM, a TGI (HOP-62 NSCLC) of 18.4 µM and a GI50 (HOP-92 NSCLC) of 0.703 µM. The TGI (HOP-92 NSCLC) was 3.39 µM, the GI50 (HS 578T breast) was 0.357 µM and the TGI (HS 578T breast) was 2.34 µM. For the same molecule, the GI50 (HT29 colon) was 0.338 µM, the TGI (HT29 colon) was 1.6 µM and the GI50 (IGROV1 ovarian) was 0.542 µM. For the same molecule, the TGI (IGROV1 ovarian) was 2.4 µM, the GI50 (K-562 leukemia) was 0.108 µM and the TGI (K-562 leukemia) was > 100 µM. The GI50 (KM12 colon) was 0.404 µM, the TGI (KM12 colon) was 1.69 µM and the GI50 (LOX IMVI melanoma) was 0.24 µM. For the same molecule, the TGI (LOX IMVI melanoma) was 1.29 µM, the GI50 (M14 melanoma) was 0.454 µM and the TGI (M14 melanoma) was 2.03 µM. The GI50 (MALME-3M melanoma) was 0.891 µM, the TGI (MALME-3M melanoma) was 2.94 µM and the GI50 (MCF7 breast) was 0.428 µM. The TGI (MCF7 breast) was 5.32 µM, the GI50 (MDA-MB-231 breast) was 0.394 µM and the TGI (MDA-MB-231 breast) was 1.71 µM. The GI50 (MDA-MB-435) was 1.07 µM, the TGI (MDA-MB-435) was 3.93 µM and the GI50 (MOLT-4 leukemia) was 0.5 µM. It also gave a TGI (MOLT-4 leukemia) of 7.91 µM, a GI50 (NCI-H226 lung) of 1.73 µM and a TGI (NCI-H226 lung) of 5.29 µM. For the same molecule, the GI50 (NCI-H23 lung) was 0.418 µM, the TGI (NCI-H23 lung) was 3.92 µM and the GI50 (NCI-H460 lung) was 0.58 µM. For the same molecule, the TGI (NCI-H460 lung) was 2.82 µM, the GI50 (NCI-H522 lung) was 0.149 µM and the TGI (NCI-H522 lung) was 1.04 µM. The GI50 (NCI/ADR-RES ovarian) was 0.461 µM, the TGI (NCI/ADR-RES ovarian) was 2.24 µM and the GI50 (OVCAR-3 ovarian) was 0.423 µM. For the same molecule, the TGI (OVCAR-3 ovarian) was 1.57 µM, the GI50 (OVCAR-4 ovarian) was 0.32 µM and the TGI (OVCAR-4 ovarian) was 1.16 µM. For the same molecule, the GI50 (OVCAR-5 ovarian) was 0.496 µM, the TGI (OVCAR-5 ovarian) was 1.93 µM and the GI50 (OVCAR-8 ovarian) was 0.338 µM. It also gave a TGI (OVCAR-8 ovarian) of 2.38 µM, a GI50 (PC-3 prostate) of 0.152 µM and a TGI (PC-3 prostate) of 1.32 µM. For the same molecule, the GI50 (RPMI-8226 leukemia) was 0.114 µM, the TGI (RPMI-8226 leukemia) was 0.675 µM and the GI50 (RXF 393 renal) was 0.289 µM. For the same molecule, the TGI (RXF 393 renal) was 1.38 µM, the GI50 (SF-268 CNS) was 0.443 µM and the TGI (SF-268 CNS) was 2.41 µM. For the same molecule, the GI50 (SF-295 CNS) was 1.13 µM, the TGI (SF-295 CNS) was 3.35 µM and the GI50 (SF-539 CNS) was 0.306 µM. The TGI (SF-539 CNS) was 1.22 µM, the GI50 (SK-MEL-2 melanoma) was 1.6 µM and the TGI (SK-MEL-2 melanoma) was 5.96 µM. It also gave a GI50 (SK-MEL-28 melanoma) of 0.748 µM, a TGI (SK-MEL-28 melanoma) of 3.39 µM and a GI50 (SK-MEL-5 melanoma) of 0.605 µM. For the same molecule, the TGI (SK-MEL-5 melanoma) was 1.7 µM, the GI50 (SK-OV-3 ovarian) was 2.47 µM and the TGI (SK-OV-3 ovarian) was 9.09 µM. For the same molecule, the GI50 (SN12C renal) was 0.603 µM, the TGI (SN12C renal) was 2.38 µM and the GI50 (SNB-19 CNS) was 0.453 µM. The TGI (SNB-19 CNS) was 5.71 µM, the GI50 (SNB-75 CNS) was 1.05 µM and the TGI (SNB-75 CNS) was 3.53 µM. It also gave a GI50 (SR leukemia) of 0.273 µM, a TGI (SR leukemia) of 4.45 µM and a GI50 (SW-620 colon) of 0.125 µM. For the same molecule, the TGI (SW-620 colon) was 1.32 µM, the GI50 (T-47D breast) was 0.341 µM and the TGI (T-47D breast) was 2.3 µM. It also gave a GI50 (TK-10 renal) of 0.504 µM, a TGI (TK-10 renal) of 13 µM and a GI50 (U251 CNS) of 0.253 µM. It also gave a TGI (U251 CNS) of 1.42 µM, a GI50 (UACC-257 melanoma) of 2.05 µM and a TGI (UACC-257 melanoma) of 6.35 µM. It also gave a GI50 (UACC-62 melanoma) of 0.453 µM, a TGI (UACC-62 melanoma) of 1.94 µM and a GI50 (UO-31 renal) of 0.26 µM. The TGI (UO-31 renal) was 1.1 µM.

Source: PubChem BioAssay (NCI)
